# Laboratory results as given in ChEMBL document CHEMBL3885881, “DrugMatrix”.
# Species: Rattus norvegicus
# Assay: DrugMatrix - Regimen: Daily Repeat
# Format: toxicity, organism-based, Sprague-Dawley
# Set-up: regimen Daily Repeat, gender Male, age 6-8 weeks
# Conditions: in vivo, iv, […], vehicle 100 % SALINE; for ALANINE AMINOTRANSFERASE / ALBUMIN / ALKALINE PHOSPHATASE / ASPARTATE AMINOTRANSFERASE / BLOOD UREA NITROGEN / CARBON DIOXIDE / CHLORIDE / CHOLESTEROL / CREATINE PHOSPHOKINASE / CREATININE / GLUCOSE / LACTATE DEHYDROGENASE / LIPASE / PHOSPHORUS / POTASSIUM / SODIUM / TOTAL BILIRUBIN / TOTAL PROTEIN / URIC ACID: tissue Plasma; for ABSOLUTE BASOPHIL / ABSOLUTE EOSINOPHIL / ABSOLUTE LYMPHOCYTE / ABSOLUTE MONOCYTE / ABSOLUTE SEGMENTED NEUTROPHIL / BASOPHIL / EOSINOPHIL / ERYTHROCYTE COUNT / HEMATOCRIT / HEMOGLOBIN / LEUKOCYTE COUNT / LYMPHOCYTE / MEAN CORPUSCULAR HEMOGLOBIN / MEAN CORPUSCULAR HEMOGLOBIN CONCENTRATION / MEAN CORPUSCULAR VOLUME / MONOCYTE / NEUTROPHIL / NUCLEATED RED BLOOD CELLS / PLATELET COUNT: tissue Blood
# [1] = 72 h, dose 0.15 mg/Kg, dose level Low, time 3 day
# [2] = 72 h, dose 1.5 mg/Kg, dose level High, time 3 day
# [3] = 120 h, dose 0.15 mg/Kg, dose level Low, time 5 day
# [4] = 120 h, dose 1.5 mg/Kg, dose level High, time 5 day
smiles,measurement,setting,value
CCC1=C[C@@H]2CN(C1)Cc1c([nH]c3ccccc13)[C@@](C(=O)OC)(c1cc3c(cc1OC)N(C)[C@H]1[C@@](O)(C(=O)OC)[C@H](OC(C)=O)[C@]4(CC)C=CCN5CC[C@]31[C@@H]54)C2 [VINORELBINE],ALANINE AMINOTRANSFERASE,[1],59 u/L
same,ALBUMIN,[1],4.53 G/DL
same,ALKALINE PHOSPHATASE,[1],404 u/L
same,ASPARTATE AMINOTRANSFERASE,[1],88.67 u/L
same,BLOOD UREA NITROGEN,[1],17.33 mg/dL
same,CARBON DIOXIDE,[1],27.33 mmol/L
same,CHLORIDE,[1],101 MEQ/L
same,CHOLESTEROL,[1],68.67 mg/dL
same,CREATINE PHOSPHOKINASE,[1],237.67 u/L
same,CREATININE,[1],0.23 mg/dL
same,GLUCOSE,[1],167.33 mg/dL
same,LACTATE DEHYDROGENASE,[1],308.67 u/L
same,LIPASE,[1],9.67 u/L
same,PHOSPHORUS,[1],13.7 mg/dL
same,POTASSIUM,[1],6.88 MEQ/L
same,SODIUM,[1],145.07 MEQ/L
same,TOTAL BILIRUBIN,[1],0.23 mg/dL
same,TOTAL PROTEIN,[1],6.33 G/DL
same,URIC ACID,[1],2.1 mg/dL
same,ALANINE AMINOTRANSFERASE,[2],45.33 u/L
same,ALBUMIN,[2],4.47 G/DL
same,ALKALINE PHOSPHATASE,[2],359.33 u/L
same,ASPARTATE AMINOTRANSFERASE,[2],137.33 u/L
same,BLOOD UREA NITROGEN,[2],20.67 mg/dL
same,CARBON DIOXIDE,[2],24 mmol/L
same,CHLORIDE,[2],103 MEQ/L
same,CHOLESTEROL,[2],72.67 mg/dL
same,CREATINE PHOSPHOKINASE,[2],671.33 u/L
same,CREATININE,[2],0.17 mg/dL
same,GLUCOSE,[2],185.67 mg/dL
same,LACTATE DEHYDROGENASE,[2],160.33 u/L
same,LIPASE,[2],10 u/L
same,PHOSPHORUS,[2],13 mg/dL
same,POTASSIUM,[2],5.92 MEQ/L
same,SODIUM,[2],146 MEQ/L
same,TOTAL BILIRUBIN,[2],0.1 mg/dL
same,TOTAL PROTEIN,[2],6.2 G/DL
same,URIC ACID,[2],2.37 mg/dL
same,ABSOLUTE BASOPHIL,[3],0 CELLS/uL
same,ABSOLUTE EOSINOPHIL,[3],49 CELLS/uL
same,ABSOLUTE LYMPHOCYTE,[3],14282 CELLS/uL
same,ABSOLUTE MONOCYTE,[3],49 CELLS/uL
same,ABSOLUTE SEGMENTED NEUTROPHIL,[3],2420 CELLS/uL
same,BASOPHIL,[3],0%
same,EOSINOPHIL,[3],0.33%
same,ERYTHROCYTE COUNT,[3],5.78 x10E6/uL
same,HEMATOCRIT,[3],36.1%
same,HEMOGLOBIN,[3],14.13 G/DL
same,LEUKOCYTE COUNT,[3],16.8 x10E3/uL
same,LYMPHOCYTE,[3],84.67%
same,MEAN CORPUSCULAR HEMOGLOBIN,[3],24.47 pg
same,MEAN CORPUSCULAR HEMOGLOBIN CONCENTRATION,[3],39.2 G/DL
same,MEAN CORPUSCULAR VOLUME,[3],62.5 fL
same,MONOCYTE,[3],0.33%
same,NEUTROPHIL,[3],14.67%
same,NUCLEATED RED BLOOD CELLS,[3],0 /100WBC
same,PLATELET COUNT,[3],1168.33 x10E3/uL
same,ABSOLUTE BASOPHIL,[4],0 CELLS/uL
same,ABSOLUTE EOSINOPHIL,[4],0 CELLS/uL
same,ABSOLUTE LYMPHOCYTE,[4],6817.33 CELLS/uL
same,ABSOLUTE MONOCYTE,[4],24.67 CELLS/uL
same,ABSOLUTE SEGMENTED NEUTROPHIL,[4],24.67 CELLS/uL
same,BASOPHIL,[4],0%
same,EOSINOPHIL,[4],0%
same,ERYTHROCYTE COUNT,[4],5.47 x10E6/uL
same,HEMATOCRIT,[4],31.93%
same,HEMOGLOBIN,[4],12.93 G/DL
same,LEUKOCYTE COUNT,[4],6.87 x10E3/uL
same,LYMPHOCYTE,[4],99.33%
same,MEAN CORPUSCULAR HEMOGLOBIN,[4],23.67 pg
same,MEAN CORPUSCULAR HEMOGLOBIN CONCENTRATION,[4],40.5 G/DL
same,MEAN CORPUSCULAR VOLUME,[4],58.4 fL
same,MONOCYTE,[4],0.33%
same,NEUTROPHIL,[4],0.33%
same,NUCLEATED RED BLOOD CELLS,[4],0 /100WBC
same,PLATELET COUNT,[4],359 x10E3/uL
same,ALANINE AMINOTRANSFERASE,[3],48.33 u/L
same,ALBUMIN,[3],4.33 G/DL
same,ALKALINE PHOSPHATASE,[3],436.67 u/L
same,ASPARTATE AMINOTRANSFERASE,[3],85 u/L
same,BLOOD UREA NITROGEN,[3],16.67 mg/dL
same,CARBON DIOXIDE,[3],27 mmol/L
same,CHLORIDE,[3],100.67 MEQ/L
same,CHOLESTEROL,[3],65.33 mg/dL
same,CREATINE PHOSPHOKINASE,[3],245 u/L
same,CREATININE,[3],0.2 mg/dL
same,GLUCOSE,[3],166.33 mg/dL
same,LACTATE DEHYDROGENASE,[3],152 u/L
same,LIPASE,[3],9.33 u/L
same,PHOSPHORUS,[3],12.43 mg/dL
same,POTASSIUM,[3],7.02 MEQ/L
same,SODIUM,[3],145.37 MEQ/L
same,TOTAL BILIRUBIN,[3],0.2 mg/dL
same,TOTAL PROTEIN,[3],6.27 G/DL
same,URIC ACID,[3],2.07 mg/dL
same,ALANINE AMINOTRANSFERASE,[4],58.67 u/L
same,ALBUMIN,[4],4.23 G/DL
same,ALKALINE PHOSPHATASE,[4],367.67 u/L
same,ASPARTATE AMINOTRANSFERASE,[4],138.67 u/L
same,BLOOD UREA NITROGEN,[4],15 mg/dL
same,CARBON DIOXIDE,[4],31.33 mmol/L
same,CHLORIDE,[4],100 MEQ/L
same,CHOLESTEROL,[4],75 mg/dL
same,CREATINE PHOSPHOKINASE,[4],193 u/L
same,CREATININE,[4],0.19 mg/dL
same,GLUCOSE,[4],143.67 mg/dL
same,LACTATE DEHYDROGENASE,[4],98 u/L
same,LIPASE,[4],9 u/L
same,PHOSPHORUS,[4],10.6 mg/dL
same,POTASSIUM,[4],6.34 MEQ/L
same,SODIUM,[4],146.4 MEQ/L
same,TOTAL BILIRUBIN,[4],0.2 mg/dL
same,TOTAL PROTEIN,[4],6.13 G/DL
same,URIC ACID,[4],0.9 mg/dL
